Measurements taken from US20180252703A1, “AN IN VITRO 3D CELL CULTURE MODEL-BASED TUMOR RELAPSE ASSAY” (INSPHERO AG, priority 2015, published 2018).

Columns and labels:
[1] = tested on: HCT-116 3D InSight colorectal cancer microtissues; assay: Tumor relapse assay: 5-day pulsed versus 10-day continuous treatment of HCT-116 microtissues, read by size and intra-tissue ATP, relapse index ReI; format: cell-based; details: for ReI at IC50, times higher than at IC20: ReI at IC50 relative to ReI at IC20; for tumor relapse index (ReI): 5-day pulsed treatment, growth profiles over 10 days; for growth after the 5-day treatment: at the respective IC50 concentration; for tumor re-growth after removing the compound after a 5-day treatment: lower drug concentrations: 6 nM taxol, 50 nM doxorubicin, 125 nM staurosporine, size or intra-tissue ATP content; for phenotype of re-growth after drug removal: phenotypic analysis, taxol at low concentrations (6 nM)
Procedure: (§1) Microtissues were treated in GravityTRAP™ plates with the indicated compound dilutions (n=4), leading to 0.5% DMSO in the cell culture medium. As a control, microtissues were exposed to 0.5% DMSO without a compound. Upon medium exchange, compounds were re-added where indicated. The treatment was performed over 10 days, however, for 2 tissues per group, the compound exposure was discontinued after 5 days and they were thereafter incubated in medium without compound (n=2).
(§2) GravityTRAP™ plates containing treated microtissues were scanned with Cell^3iMager (Dainippon, Japan) with a resolution of 4800 dpi. Microtissue size was assessed with the software provided by the manufacturer.
(§3) Air bubbles interfering with the size analysis were excluded manually, either by adjusting the image section to be analyzed by the software or by cropping the area designated to a microtissue after size measurement. The acquired data was normalized to the non-treated control (S=size of microtissue).
In order to determine the number of viable cells per microtissue, the amount of intracellular ATP as a measure for metabolic activity was determined by using CellTiter-Glo® Luminescent Cell Viability Assay (Promega; Madison, USA). The assay was performed according to the manufacturer's protocol with slight adaptations specific to microtissues. In brief, supernatant was removed and lysis of microtissues initiated by adding 40 μl diluted CellTiter-Glo Reagent (1:2 in PBS). The cell lysis was enhanced by pipetting up and down prior to transfer into an opaque white assay plate. […] The acquired data was normalized to the non-treated control:
To generate the tumor relapse index the growth profiles of the pulsed treatment groups were compared to the growth curves of the vehicle-only treated microtissues and the lowest maximum concentration treated group (FIG. 7). The impact of the pulsed drug treatment was set relative to the control and the maximum response of the respective drug (FIGS. 5 and 6).
To determine a tumor relapse index, the sizes (e.g., diameter, volume or area of an optical cross section) of at least one 3-dimensional cell culture or tissue in the continuous treatment group, the pulsed treatment group and the untreated control group are determined at a given point of time (endpoint measurement).
Then, (i) the difference (e.g., d2) between the size of at least one 3-dimensional cell culture or tissue in the continuous treatment group and at least one 3-dimensional cell culture or tissue in the pulsed treatment group is formed, and
(ii) the difference (e.g., d1) between the size of at least one 3-dimensional cell culture or tissue in the pulsed treatment group and at least one 3-dimensional cell culture or tissue in the untreated control group is formed.
Then, a quotient is formed out of the two differences (e.g., d1/d^2) to deliver a tumor relapse index. Such tumor relapse indices can be determined for different inhibitory concentration of the respective anti-cancer agents.

[2] = tested on: HCT-116 3D InSight colorectal cancer microtissues; assay: Dose response of HCT-116 3D microtissues by size (area) after 5 days of compound exposure; format: cell-based; details: Homo sapiens, HCT-116, 120 h; tissue size (area), after 5 days exposure
Procedure: After microtissue formation, spheroids were transferred into GravityTRAP™ plates for further experiments. Medium was refreshed at days 4, 6 and 8 post-transfer to assay plates.
From the stock solutions, two-fold serial dilutions in DMSO were prepared for each compound, leading to 200× concentrated working dilutions.
as §1
IC20 and IC50 values were determined by plotting the tissue size over the compound concentration after incubation over 5 days.
as §2, §3
Dose response based on the size (area) of the tumor microtissue were used to define IC20, IC50 and the lowest maximum response concentration [nM].

COc1cccc2c1C(=O)c1c(O)c3c(c(O)c1C2=O)C[C@@](O)(C(=O)CO)C[C@@H]3O[C@H]1C[C@H](N)[C@H](O)[C@H](C)O1 [doxorubicin]
capacity to re-grow after drug removal ([1]; 50 nM treated group compared with 100 nM treated group): stronger capacity to re-grow
ReI at IC50, times higher than at IC20 [1]: 6.6 times
tumor relapse index (ReI) ([1]; at IC20 concentration): 0.32
tumor relapse index (ReI) ([1]; at IC50 concentration): 2.1
growth after the 5-day treatment [1]: the tumor was still able to grow
tumor re-growth after removing the compound after a 5-day treatment [1]: tumor re-growth was observed
phenotype of re-growth after drug removal [1]: regrew symmetrically
IC20 [2]: 50 nM
IC50 [2]: 200 nM

CC(=O)O[C@H]1C(=O)[C@@]2(C)[C@H]([C@H](OC(=O)c3ccccc3)[C@]3(O)C[C@H](OC(=O)[C@H](O)[C@@H](NC(=O)c4ccccc4)c4ccccc4)C(C)=C1C3(C)C)[C@]1(OC(C)=O)CO[C@@H]1C[C@@H]2O [taxol]
ReI at IC50, times higher than at IC20 [1]: 26 times
tumor relapse index (ReI) ([1]; at IC20 concentration): 0.59
tumor relapse index (ReI) ([1]; at IC50 concentration): 15.3
growth after the 5-day treatment [1]: hardly any growth could be observed
tumor removal ([1]; high concentrations, after 5 days): nearly complete tumor removal
tumor re-growth after removing the compound after a 5-day treatment [1]: tumor re-growth was observed
phenotype of re-growth after drug removal [1]: regrew side-specific
IC20 [2]: 6.25 nM
IC50 [2]: 12.5 nM

CN[C@@H]1C[C@H]2O[C@@](C)([C@@H]1OC)n1c3ccccc3c3c4c(c5c6ccccc6n2c5c31)C(=O)NC4 [staurosporine]
re-growth compared to continuous treated counterparts ([1]; 125 nM and 500 nM, drug removed after 5 days, size and intra-tissue ATP): re-grew substantially
tumor relapse index (ReI) ([1]; at IC50 concentration): 0.56
growth after the 5-day treatment [1]: growth occurred even in a similar extent as in the non-treated control culture
tumor re-growth after removing the compound after a 5-day treatment [1]: tumor re-growth was observed
phenotype of re-growth after drug removal [1]: regrew symmetrically
IC20 [2]: 31.2 nM
